From PubChem BioAssay (NCI)
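Each compound was tested at five concentrations against cells in 96-well plates for 48 hours. Abbreviation: GI50, concentration required for 50% inhibition of growth. Definition used: TGI = concentration required for complete inhibition of growth.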

Test system: MDA-MB-468 breast
Experiment: DTP human tumour cell line panel, 48 h

SMILES: CCCCCCCC/C=C/CCCCCCCC1=NC(C)(C)CN1C(C)(C)CO
- GI50: 1730 nM
- TGI: 3230 nM

SMILES: CN(C)CCC(=O)Nc1ccc(-n2cc(-c3cccc(NC(=S)Nc4cccc(-c5cn(-c6ccc(NC(=O)CCN(C)C)cc6)nn5)c4)c3)nn2)cc1
- GI50: 4740 nM
- TGI: 22700 nM

SMILES: COC1=CC(c2ccc[nH]2)=N/C1=C\c1[nH]c(C)c(C(=O)CCCCCCCCC(=O)O[C@H]2CC[C@H]3C4CCc5cc(O)ccc5C4CC[C@]23C)c1C (some centres not stated)
- GI50: 560 nM
- TGI: > 50000 nM

SMILES: COc1ccc2[nH]c(C(=O)N3CCN(C(=O)OCc4ccc5c(Cl)cc(Cl)c(O)c5n4)CC3)cc2c1
- GI50: 1260 nM
- TGI: 2780 nM

SMILES: O=C1C(=O)c2c(nc3ccc(C(F)(F)F)cn23)-c2ccccc21
- GI50: 234 nM
- TGI: 560 nM

SMILES: Cc1ccccc1NC(=O)Nc1nc2ccc([N+](=O)[O-])cc2s1
- GI50: 2410 nM
- TGI: 5370 nM

SMILES: Nc1cc2c3c(cccc3c1)C(=O)N(CCN1CCCC1)C2=O
- GI50: 4480 nM
- TGI: 21100 nM

SMILES: C[C@@H]1C[C@@H]([C@H](O)CC2CC(=O)NC(=O)C2)C(=O)[C@@H](C)C1
- GI50: 250 nM
- TGI: 4050 nM

SMILES: CCN(CC)C(=S)SSC(C)C
- GI50: 17300 nM
- TGI: 45800 nM

SMILES: COc1ccc(-c2ccc(OC)c(OC)c2OC)cc1
- GI50: 377 nM
- TGI: 4370 nM

SMILES: CCCCNC(c1ccc(Cl)cc1)C(O)c1ccc(Cl)cc1 (configuration not stated)
- GI50: 1690 nM
- TGI: 3300 nM

SMILES: COc1cc(C2CC(c3ccc(Nc4nc(NCCO)nc(NCCO)n4)cc3)=NN2c2cc(Cl)cc(Cl)c2)cc(OC)c1OC (configuration not stated)
- GI50: 1680 nM
- TGI: 4480 nM

SMILES: COc1cc(N2C(=O)[C@H](Cl)C2c2ccc(SC)cc2)cc(OC)c1OC (some centres not stated)
- GI50: 274 nM
- TGI: > 100000 nM

SMILES: NC(N)=N/N=C\c1ccc(OCc2ccccc2)cc1
- GI50: 1230 nM
- TGI: 2640 nM

SMILES: O=c1[nH]c(C2CCCN2)nc2c1oc1ccc(Cl)cc12 (configuration not stated)
- GI50: > 67400 nM
- TGI: > 100000 nM

SMILES: C/C(=N/NC(=S)Nc1ccccc1)c1nc2ccc(Cl)cc2[nH]1
- GI50: 181 nM
- TGI: 776 nM

SMILES: Cn1c(COC(=O)NCCn2ccnc2)nc2c(N3CCOCC3)nc(-c3ccccc3)nc21
- GI50: 360 nM
- TGI: 1460 nM

SMILES: CC(C)(C)C[C@H]1N[C@@H](C(=O)NC2CCC(O)CC2)[C@H](c2cccc(Cl)c2F)[C@@]12C(=O)Nc1cc(Cl)ccc12 (some centres not stated)
- GI50: 3540 nM
- TGI: 18500 nM

SMILES: O=C(NCc1ncc[nH]1)c1ccc(-c2nc3ccc4[nH]ncc4c3c3c2CCCC3)cc1
- GI50: 640 nM
- TGI: 1850 nM

SMILES: O=C1c2cc3c(cc2-c2c1c1cc(F)c(F)cc1c(=O)n2CCCn1ccnc1)OCO3
- GI50: 20.5 nM
- TGI: 90.7 nM

SMILES: Cn1c(COC(=O)NCCc2ccccn2)nc2c(N3CCOCC3)nc(Cl)nc21
- GI50: 1560 nM
- TGI: 3770 nM

SMILES: C#C[C@]1(O)CC[C@H]2[C@@H]3CC=C4c5sc(Nc6ccc(Cl)cn6)nc5CC[C@]4(C)[C@H]3CC[C@@]21C
- GI50: 7650 nM
- TGI: > 100000 nM

SMILES: O=C1NC(=NCCc2ccc(Cl)cc2)S/C1=C\c1ccc2ncccc2c1
- GI50: 7500 nM
- TGI: > 25000 nM

SMILES: Cn1c(I)c(C#C[Si](C)(C)C)c(=O)n(C(=O)c2ccccc2)c1=O
- GI50: 1190 nM
- TGI: 2870 nM

SMILES: CCOC(=O)Nc1ccc2nc(-c3cscn3)[nH]c2c1
- GI50: 2440 nM
- TGI: > 100000 nM

SMILES: OCc1ccc(N(Cc2ccc(F)cc2)Cc2ccc(F)cc2)cc1Cl
- GI50: 341 nM
- TGI: 1700 nM

SMILES: C/C(=C(/c1ccc(O)cc1)c1ccc(OCCN(C)C)cc1)c1ccc(Cl)cc1
- GI50: 13400 nM
- TGI: 31900 nM

SMILES: COc1ccc2c(c1)C(=O)c1c-2c(OCCCN(C)C)nc2cc(Br)ccc12
- GI50: 4680 nM
- TGI: 18000 nM

SMILES: O=C1C=CC(=O)c2c(O)c(N3CCN(CCO)CC3)c(Cl)c(O)c21
- GI50: 286 nM
- TGI: 1000 nM

SMILES: CCCCCCCC(=O)OCC/C=C/C1OC1C1OC(=O)/C=C\C=C\C(=O)N(C(C)=O)C(=O)/C=C(/C)CCC2OC2C1OC(=O)NC(C)=O (configuration not stated)
- GI50: 1210 nM
- TGI: 5600 nM

SMILES: O=C(Nc1n[nH]c2cc(-c3cc(F)ccc3F)ccc12)C1CC1
- GI50: 6060 nM
- TGI: > 25000 nM

SMILES: COc1ccc(-n2c(=S)sc3c(Cl)nc(C)nc32)c(OC)c1
- GI50: 1980 nM
- TGI: 6570 nM

SMILES: CC1=NN(c2cccc(Cl)c2)C(=O)/C1=C\c1cn(CC(O)CN2CCCCC2)c2ccccc12 (configuration not stated)
- GI50: 10400 nM
- TGI: 25500 nM

SMILES: Cc1cccc(N2C(=O)/C(=C/C(Cl)=C/c3ccc([N+](=O)[O-])cc3)SC2=S)c1C
- GI50: 1690 nM
- TGI: 4250 nM

SMILES: C[C@@]1(F)[C@H](O)[C@@H](CO)O[C@H]1n1ccc(=O)[nH]c1=O
- GI50: > 100000 nM
- TGI: > 100000 nM

SMILES: COc1cc(/C=N/NC(=O)c2cnn3c2NC(c2ccccc2)C3)ccc1OC1CCCC1 (configuration not stated)
- GI50: 524 nM
- TGI: 5710 nM
